From ChEMBL document CHEMBL1201862, “PubChem BioAssay data set” (2004)
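Exposure lasted 48 hours, with cells grown in 96-well plates and compounds tested at five concentrations. GI50 = concentration required for 50% inhibition of growth.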 Calls of active or inactive are those of the source. No stated cut-off is given here; in the data, active = GI50 up to about 1.1 µM and inactive = higher.

Legend:
Assay in all cases: NCI anticancer screen, dose series, 48 h
SN12C = system: SN12C
MDA-MB-231 = system: MDA-MB-231
A549 = system: A549
SW-620 = system: SW-620
DU-145 = system: DU-145
HT-29 = system: HT-29
SF-539 = system: SF-539
A498 = system: A498
BT-549 = system: BT-549
SR = system: SR
OVCAR-4 = system: OVCAR-4
K562 = system: K562
TK-10 = system: TK-10
SF-295 = system: SF-295
MOLT-4 = system: MOLT-4
EKVX = system: EKVX
CCRF-CEM = system: CCRF-CEM
MCF7 = system: MCF7
NCI-H226 = system: NCI-H226
SK-MEL-5 = system: SK-MEL-5

Measured: GI50

O=C(O)c1cc(C(=O)O)nc(C(=O)O)c1
inactive: SN12C > 100 µM | MDA-MB-231 > 100 µM | A549 > 100 µM | SW-620 > 100 µM | DU-145 > 100 µM | HT-29 > 100 µM | SF-539 > 100 µM | A498 > 100 µM | BT-549 > 100 µM | SR > 100 µM | OVCAR-4 > 100 µM | K562 > 100 µM | TK-10 > 100 µM | SF-295 > 100 µM | MOLT-4 > 100 µM | EKVX > 100 µM | CCRF-CEM 42.7 µM | MCF7 > 100 µM | NCI-H226 > 100 µM | SK-MEL-5 > 100 µM

CC[P+](c1ccccc1)(N(C)C)N(C)C
inactive: SN12C > 100 µM | MDA-MB-231 > 100 µM | A549 > 100 µM | SW-620 > 100 µM | DU-145 > 100 µM | HT-29 > 100 µM | SF-539 > 100 µM | A498 > 100 µM | BT-549 > 100 µM | SR > 100 µM | OVCAR-4 > 100 µM | K562 > 100 µM | TK-10 > 100 µM | SF-295 > 100 µM | MOLT-4 > 100 µM | EKVX > 100 µM | CCRF-CEM > 100 µM | MCF7 > 100 µM | NCI-H226 59.8 µM | SK-MEL-5 54.5 µM

C=CC[C@@H]1C=C[C@@H](C(=O)OC)n2c(=O)n(-c3ccccc3)c(=O)n21
inactive: SN12C > 100 µM | MDA-MB-231 > 100 µM | SW-620 > 100 µM | DU-145 > 100 µM | HT-29 > 100 µM | SF-539 > 100 µM | A498 > 100 µM | BT-549 > 100 µM | SR > 100 µM | OVCAR-4 > 100 µM | K562 > 100 µM | TK-10 > 100 µM | SF-295 > 100 µM | MOLT-4 > 100 µM | EKVX > 100 µM | CCRF-CEM > 100 µM | MCF7 > 100 µM | NCI-H226 > 100 µM | SK-MEL-5 > 100 µM

CN(C)c1ccc2nc3c(C(=O)O)cc(O)c(O)c3[o+]c2c1
inactive: SN12C 20.2 µM | MDA-MB-231 33 µM | A549 > 100 µM | SW-620 31 µM | DU-145 31.8 µM | HT-29 38.5 µM | SF-539 27 µM | A498 > 100 µM | BT-549 20.9 µM | SR 17.5 µM | OVCAR-4 29 µM | K562 22.4 µM | TK-10 21.8 µM | SF-295 > 100 µM | MOLT-4 14.4 µM | EKVX 26.4 µM | CCRF-CEM 10.5 µM | MCF7 21.1 µM | NCI-H226 56.5 µM | SK-MEL-5 15.3 µM

CC(=O)Nc1ccc(N2C(=O)/C(=C\c3cccc(Oc4ccccc4)c3)SC2c2ccccc2)cc1 (centres undefined)
inactive: SN12C 26.8 µM | MDA-MB-231 32.6 µM | A549 27.1 µM | SW-620 30.8 µM | DU-145 27.5 µM | SF-539 19.3 µM | A498 50.1 µM | BT-549 33.3 µM | SR 21 µM | OVCAR-4 32.4 µM | K562 33.1 µM | TK-10 34.4 µM | SF-295 38.5 µM | MOLT-4 27.9 µM | EKVX 42.7 µM | CCRF-CEM 17.3 µM | MCF7 21 µM | NCI-H226 22 µM | SK-MEL-5 23.7 µM

O=C(NCCc1n[nH]c2c1C(=O)C=C(Nc1ccccc1)C2=O)OCc1ccccc1
inactive: SN12C > 100 µM | MDA-MB-231 > 100 µM | A549 > 100 µM | SW-620 > 100 µM | DU-145 > 100 µM | HT-29 > 100 µM | SF-539 > 100 µM | A498 > 100 µM | BT-549 > 100 µM | SR > 100 µM | OVCAR-4 66.4 µM | TK-10 > 100 µM | SF-295 > 100 µM | MOLT-4 > 100 µM | EKVX > 100 µM | CCRF-CEM > 100 µM | MCF7 > 100 µM | NCI-H226 > 100 µM | SK-MEL-5 > 100 µM

Cc1c(C=C(C#N)C#N)c(=O)n(C)c(=O)n1C
inactive: SN12C > 100 µM | MDA-MB-231 > 100 µM | A549 > 100 µM | SW-620 > 100 µM | DU-145 > 100 µM | HT-29 > 100 µM | SF-539 > 100 µM | A498 > 100 µM | BT-549 > 100 µM | SR 32.9 µM | OVCAR-4 > 100 µM | K562 > 100 µM | TK-10 > 100 µM | SF-295 > 100 µM | MOLT-4 95.3 µM | EKVX 81.5 µM | CCRF-CEM 19.6 µM | MCF7 > 100 µM | NCI-H226 > 100 µM | SK-MEL-5 > 100 µM

O=C1N=C(S)NNC12c1ccccc1-c1ccccc12
inactive: SN12C > 10 µM | MDA-MB-231 > 10 µM | A549 > 10 µM | SW-620 > 10 µM | DU-145 > 10 µM | HT-29 > 10 µM | SF-539 > 10 µM | A498 3.31 µM | BT-549 > 10 µM | SR > 10 µM | OVCAR-4 > 10 µM | K562 > 10 µM | TK-10 > 10 µM | MOLT-4 > 10 µM | EKVX 2.99 µM | CCRF-CEM > 10 µM | MCF7 8.71 µM | NCI-H226 > 10 µM | SK-MEL-5 5.22 µM

CN(C)CCCc1c[nH]c2ccccc12
inactive: SN12C > 100 µM | MDA-MB-231 > 100 µM | A549 > 100 µM | SW-620 > 100 µM | DU-145 > 100 µM | HT-29 > 100 µM | SF-539 > 100 µM | A498 > 100 µM | BT-549 > 100 µM | SR > 100 µM | OVCAR-4 > 100 µM | K562 > 100 µM | TK-10 > 100 µM | SF-295 > 100 µM | MOLT-4 > 100 µM | EKVX > 100 µM | CCRF-CEM > 100 µM | MCF7 > 100 µM | NCI-H226 > 100 µM | SK-MEL-5 > 100 µM

Brc1cccc(/N=N/N2CCCC2)c1
inactive: SN12C > 100 µM | MDA-MB-231 > 100 µM | SW-620 > 100 µM | DU-145 > 100 µM | SF-539 > 100 µM | A498 > 100 µM | BT-549 68.9 µM | SR 27.4 µM | OVCAR-4 > 100 µM | K562 48.9 µM | TK-10 > 100 µM | SF-295 97.5 µM | MOLT-4 71.8 µM | EKVX 97.9 µM | CCRF-CEM 49.2 µM | MCF7 > 100 µM | NCI-H226 > 100 µM | SK-MEL-5 66.2 µM
